Measured values published in PMC8286840, “Identifying SARS-CoV-2 antiviral compounds by screening for small molecule inhibitors of Nsp3 papain-like protease” (Biochemical Journal, 2021).
Where a name gives a salt, the structure may show the parent alone. Read-outs that look alike come from different tables or passages of the source.

Key:
[1] = molecular target: T1, SARS-CoV-2 PLpro (nsp3 1564–1878) (Severe acute respiratory syndrome coronavirus 2, UniProt P0DTD1); assay: biochemical; design: FRET-quenched peptide (Pro3) cleavage by PLpro, 10 min pre-incubation, slope over 20 min, normalised to no-compound control; conditions: low concentration screen, read-out: % of control remaining
[2] = molecular target: T1, SARS-CoV-2 PLpro (nsp3 1564–1878); assay: biochemical; design: FRET-quenched peptide (Pro3) cleavage by PLpro, 10 min pre-incubation, slope over 20 min, normalised to no-compound control; conditions: high concentration screen, read-out: % of control remaining

## CCCCOc1c(C(=O)c2c(F)cc(C)cc2F)c[nH]c2nncc1-2 [BMS-265246]
[1]; Well no.=5010
  remaining activity at 1.25 µM: 95.8%
[2]; Well no.=5010
  remaining activity at 3.75 µM: 96.6%

## COc1ccnc2[nH]cc(C(=O)C(=O)N3CCN(C(=O)c4ccccc4)C[C@H]3C)c12 [BMS-378806]
[1]; Well no.=8420
  remaining activity at 1.25 µM: 96.7%
[2]; Well no.=8420
  remaining activity at 3.75 µM: 94.2%

## Cn1c(N2CCCCS2(=O)=O)nc(C(=O)NCc2ccc(F)cc2)c(O)c1=O [BMS-707035]
[1]; Well no.=5193
  remaining activity at 1.25 µM: 105%
[2]; Well no.=5193
  remaining activity at 3.75 µM: 106%

## CC(=O)N[C@@H]1C[C@H](NC(C)(C)C)CC[C@@H]1N1CC[C@H](Nc2ncnc3cc(C(C)(C)C)nn23)C1=O [BMS-813160]
[1]; Well no.=8217
  remaining activity at 1.25 µM: 103%
[2]; Well no.=8217
  remaining activity at 3.75 µM: 100%

## COc1ccccc1N1CCN(CCN2C(=O)CC3(CCCC3)CC2=O)CC1 [BMY 7378 dihydrochloride]
[1]; Well no.=229
  remaining activity at 1.25 µM: 98.4%
[2]; Well no.=229
  remaining activity at 3.75 µM: 100%

## COc1ccccc1N1CCN(CCN2C(=O)CC3(CCCC3)CC2=O)CC1 [BMY 7378]
[1]; Well no.=5346
  remaining activity at 1.25 µM: 91.4%
[2]; Well no.=5346
  remaining activity at 3.75 µM: 88.7%

## CCCc1cc(=O)oc2c(C(=O)N3CCCc4ccccc43)c(OC)cc(OC)c12 [BNS-22]
[1]; Well no.=5907
  remaining activity at 1.25 µM: 101%
[2]; Well no.=5907
  remaining activity at 3.75 µM: 98.7%

## COC(=O)CC(NC(=O)OC(C)(C)C)C(=O)CF [BOC-D-FMK]
[1]; Well no.=6868
  remaining activity at 1.25 µM: 95.7%
[1]; Well no.=7644
  remaining activity at 1.25 µM: 101%
[2]; Well no.=6868
  remaining activity at 3.75 µM: 93.9%
[2]; Well no.=7644
  remaining activity at 3.75 µM: 95.4%

## COc1ccccc1N1CCN(CCCCNC(=O)c2ccc3ccccc3c2)CC1 [BP897]
[1]; Well no.=6013
  remaining activity at 1.25 µM: 106%
[2]; Well no.=6013
  remaining activity at 3.75 µM: 98.6%

## COc1ccccc1N1CCN(CCCCNC(=O)c2ccc3ccccc3c2)CC1 [BP 897]
[1]; Well no.=35
  remaining activity at 1.25 µM: 95.8%
[2]; Well no.=35
  remaining activity at 3.75 µM: 93.4%

## Cn1cnc2cc3c(Nc4cccc(Br)c4)ncnc3cc21 [BPIQ-I]
[1]; Well no.=2357
  remaining activity at 1.25 µM: 101%
[2]; Well no.=2357
  remaining activity at 3.75 µM: 99%

## CCCC[C@@H](NC(=O)[C@@H](Cc1cn(C(=O)OC)c2ccccc12)NC(=O)[C@H](CC(C)(C)C)NC(=O)N1[C@H](C)CCC[C@@H]1C)C(=O)O [BQ-788 (sodium salt)]
[1]; Well no.=8560
  remaining activity at 1.25 µM: 108%
[2]; Well no.=8560
  remaining activity at 3.75 µM: 101%

## Cc1nn(C)c2c1C(c1ccc(C(F)(F)F)cc1)C(C#N)=C(N)O2 (centres unmarked) [BQU57]
[1]; Well no.=7957
  remaining activity at 1.25 µM: 103%
[2]; Well no.=7957
  remaining activity at 3.75 µM: 94.7%

## COC(=O)c1ccc2c(c1)nc(NC(=O)c1ccccc1)n2CCCc1ccccc1 [BRD4770]
[1]; Well no.=5781
  remaining activity at 1.25 µM: 97%
[2]; Well no.=5781
  remaining activity at 3.75 µM: 96.3%

## COc1ccc(Nc2nc(N)nc(CN3CCCCC3)n2)cc1 [BRD32048]
[1]; Well no.=5572
  remaining activity at 1.25 µM: 91.7%
[2]; Well no.=5572
  remaining activity at 3.75 µM: 98.9%

## O=C(NO)c1cccc(C(=O)NCCc2ccccc2)c1 [BRD73954]
[1]; Well no.=5588
  remaining activity at 1.25 µM: 99.7%
[2]; Well no.=5588
  remaining activity at 3.75 µM: 92.7%

## OC(CN1CCN(c2cccc(Cl)c2)CC1)C(c1ccccc1)c1ccccc1 (centres unmarked) [BRL 15572]
[1]; Well no.=131
  remaining activity at 1.25 µM: 95.9%
[2]; Well no.=131
  remaining activity at 3.75 µM: 98.1%

## CN1CCC(c2c[nH]c3ccc(O)cc23)CC1 [BRL 54443 maleate]
[1]; Well no.=231
  remaining activity at 1.25 µM: 101%
[2]; Well no.=231
  remaining activity at 3.75 µM: 101%

## CN1CCC(c2c[nH]c3ccc(O)cc23)CC1 [BRL 54443]
[1]; Well no.=5171
  remaining activity at 1.25 µM: 98%
[1]; Well no.=6945
  remaining activity at 1.25 µM: 103%
[2]; Well no.=5171
  remaining activity at 3.75 µM: 89.8%
[2]; Well no.=6945
  remaining activity at 3.75 µM: 93.5%

## OC(CN1CCN(c2cccc(Cl)c2)CC1)C(c1ccccc1)c1ccccc1 (centres unmarked) [BRL-15572]
[1]; Well no.=5336
  remaining activity at 1.25 µM: 94.9%
[2]; Well no.=5336
  remaining activity at 3.75 µM: 94.2%

## O=C(Oc1cc(S(=O)(=O)c2ccccc2)ccc1[N+](=O)[O-])c1ccc(Cl)cc1 [BTB06584]
[1]; Well no.=5965
  remaining activity at 1.25 µM: 102%
[2]; Well no.=5965
  remaining activity at 3.75 µM: 102%

## c1ccc2sc(C3(N4CCCCC4)CCCCC3)cc2c1 [BTCP hydrochloride]
[1]; Well no.=325
  remaining activity at 1.25 µM: 101%
[2]; Well no.=325
  remaining activity at 3.75 µM: 96.6%

## CCN1C(=O)/C(=C/c2ccccc2)SC1=S [BTR-1]
[1]; Well no.=7124
  remaining activity at 1.25 µM: 99.8%
[2]; Well no.=7124
  remaining activity at 3.75 µM: 95.2%

## c1ccc2nc(C3=NCCN3)ccc2c1 [BU224 hydrochloride]
[1]; Well no.=39
  remaining activity at 1.25 µM: 102%
[2]; Well no.=39
  remaining activity at 3.75 µM: 105%

## C=CC[N+](C)(C)c1ccc(CCC(=O)CCc2ccc([N+](C)(C)CC=C)cc2)cc1 [BW 284c51]
[1]; Well no.=152
  remaining activity at 1.25 µM: 98.6%
[2]; Well no.=152
  remaining activity at 3.75 µM: 101%

## CC(N)Cc1c[nH]c2ccc(OCc3cccs3)cc12 (centres unmarked) [BW 723C86]
[1]; Well no.=279
  remaining activity at 1.25 µM: 98.7%
[2]; Well no.=279
  remaining activity at 3.75 µM: 98.9%

## CC(/C=C/c1cccc(Oc2ccc(F)cc2)c1)N(O)C(N)=O (centres unmarked) [BWB70C]
[1]; Well no.=221
  remaining activity at 1.25 µM: 103%
[2]; Well no.=221
  remaining activity at 3.75 µM: 102%

## O=C(NCCCNc1nc(Nc2cccc(NC(=O)N3CCCC3)c2)ncc1I)c1cccs1 [BX795]
[1]; Well no.=2931
  remaining activity at 1.25 µM: 99%
[2]; Well no.=2931
  remaining activity at 3.75 µM: 99.2%

## O=C(Nc1cccc(Nc2ncc(Br)c(NCCc3cnc[nH]3)n2)c1)N1CCCC1 [BX912]
[1]; Well no.=2979
  remaining activity at 1.25 µM: 95.2%
[2]; Well no.=2979
  remaining activity at 3.75 µM: 93.8%

## Cc1nc(NC(=O)N2CCC[C@H]2C(N)=O)sc1-c1ccnc(C(C)(C)C(F)(F)F)c1 [BYL719]
[1]; Well no.=5163
  remaining activity at 1.25 µM: 102%
[2]; Well no.=5163
  remaining activity at 3.75 µM: 104%

## CC(=O)O[C@H]1C(=O)[C@@]2(C)[C@H]([C@H](OC(=O)c3ccccc3)[C@]3(O)C[C@H](O)C(C)=C1C3(C)C)[C@]1(OC(C)=O)CO[C@@H]1C[C@@H]2O [Baccatin III]
[1]; Well no.=3099
  remaining activity at 1.25 µM: 97.9%
[2]; Well no.=3099
  remaining activity at 3.75 µM: 99.5%

## O=c1cc(-c2ccccc2)oc2cc(O)c(O)c(O)c12 [Baicalein]
[1]; Well no.=3087
  remaining activity at 1.25 µM: 103%
[1]; Well no.=3942
  remaining activity at 1.25 µM: 108%
[2]; Well no.=3087
  remaining activity at 3.75 µM: 101%
[2]; Well no.=3942
  remaining activity at 3.75 µM: 104%

## O=C(O)[C@H]1O[C@@H](Oc2cc3oc(-c4ccccc4)cc(=O)c3c(O)c2O)[C@H](O)[C@@H](O)[C@@H]1O [Baicalin]
[1]; Well no.=5190
  remaining activity at 1.25 µM: 101%
[2]; Well no.=5190
  remaining activity at 3.75 µM: 100%

## C=C[C@@](C)(/C=C/c1ccc(O)cc1)CCC=C(C)C [Bakuchiol]
[1]; Well no.=4001
  remaining activity at 1.25 µM: 101%
[2]; Well no.=3520
  remaining activity at 3.75 µM: 101%
[2]; Well no.=4001
  remaining activity at 3.75 µM: 97.7%

## CNC1CCCN(c2c(F)cc3c(=O)c(C(=O)O)cn(C4CC4)c3c2OC)C1 (centres unmarked) [Balofloxacin]
[1]; Well no.=5058
  remaining activity at 1.25 µM: 95.8%
[2]; Well no.=5058
  remaining activity at 3.75 µM: 97.3%
